Laboratory results: the supplement of paper PMC12463676, “Small-molecule dissolution of stress granules by redox modulation benefits ALS models” (Nature Chemical Biology, 2025)

Key:
potassium arsenate = compound: O=[As]([O-])(O)O.[K+] [potassium arsenate]; assay: thermal stability z-score vs DMSO; higher = more thermally stabilized by treatment; conditions: HeLa; arsenate concentration 1 mM
Method: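 Cellular thermal proteome profiling in HeLa cells treated with 1 mM arsenate for 1 h (DMSO pretreatment), heated to ten temperatures (37-66.3 °C). Soluble protein was quantified by TMT mass spectrometry relative to DMSO controls; the thermal stability score was transformed to a z-score; mean of n = 3 experiments.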

lipoamide = compound: NC(=O)CCCCC1CCSS1 [lipoamide]; assay: as above; conditions: HeLa, lipoamide concentration 100 µM
Method: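 Cellular thermal proteome profiling in HeLa cells. Cells were treated with 100 µM lipoamide for 1 h, with or without 1 mM arsenate for a further 1 h, then heated to ten temperatures (37-66.3 °C), and soluble protein was quantified by TMT mass spectrometry relative to 0.1% DMSO controls. The thermal stability score (sum of log2 fold changes minus the abundance score) was transformed to a z-score; mean of n = 3 experiments.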

[1] = arsenate co-treatment: 1 mM arsenate 1 h
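Also: each temperature applied for 3 min, abundance score taken as mean log2 fold change at the two lowest temperatures, z-score obtained by mean subtraction and division by SD.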

Sequence of UniProt Q7L5Y1 (Q7L5Y1 whole entry): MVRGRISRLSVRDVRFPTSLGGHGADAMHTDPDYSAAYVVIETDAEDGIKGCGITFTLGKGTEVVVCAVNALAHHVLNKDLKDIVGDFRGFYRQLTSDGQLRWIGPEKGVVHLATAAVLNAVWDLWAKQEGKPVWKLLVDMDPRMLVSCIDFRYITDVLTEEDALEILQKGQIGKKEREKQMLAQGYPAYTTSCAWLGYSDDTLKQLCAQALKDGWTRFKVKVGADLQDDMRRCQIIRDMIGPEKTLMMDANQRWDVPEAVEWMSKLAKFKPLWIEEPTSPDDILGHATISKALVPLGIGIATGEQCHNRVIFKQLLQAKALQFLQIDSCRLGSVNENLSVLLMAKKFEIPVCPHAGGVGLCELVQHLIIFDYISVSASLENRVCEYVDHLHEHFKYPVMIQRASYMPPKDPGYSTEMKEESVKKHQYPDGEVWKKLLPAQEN
Sequence of UniProt Q9UDW1 (Q9UDW1 whole entry): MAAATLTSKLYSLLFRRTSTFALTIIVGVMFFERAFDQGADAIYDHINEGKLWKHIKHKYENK
Sequence of UniProt O76094 (O76094 whole entry): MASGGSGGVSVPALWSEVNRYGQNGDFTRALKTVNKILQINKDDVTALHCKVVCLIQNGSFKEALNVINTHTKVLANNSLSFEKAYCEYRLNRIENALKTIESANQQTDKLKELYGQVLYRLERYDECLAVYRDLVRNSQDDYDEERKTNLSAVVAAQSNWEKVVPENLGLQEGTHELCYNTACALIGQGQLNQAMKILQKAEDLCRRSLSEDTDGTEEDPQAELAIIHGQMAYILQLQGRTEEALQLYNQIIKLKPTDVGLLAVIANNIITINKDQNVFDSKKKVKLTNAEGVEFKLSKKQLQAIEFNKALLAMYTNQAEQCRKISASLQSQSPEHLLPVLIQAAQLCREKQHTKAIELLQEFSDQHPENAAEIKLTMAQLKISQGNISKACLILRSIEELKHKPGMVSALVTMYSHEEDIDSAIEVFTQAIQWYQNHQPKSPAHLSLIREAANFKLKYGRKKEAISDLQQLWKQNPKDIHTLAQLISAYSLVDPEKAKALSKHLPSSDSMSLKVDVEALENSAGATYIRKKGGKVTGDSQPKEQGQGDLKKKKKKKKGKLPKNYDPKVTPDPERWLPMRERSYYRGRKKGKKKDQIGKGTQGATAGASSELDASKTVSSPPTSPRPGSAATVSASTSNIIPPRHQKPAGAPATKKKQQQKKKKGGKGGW
Sequence of UniProt Q9BTF0 (Q9BTF0 whole entry): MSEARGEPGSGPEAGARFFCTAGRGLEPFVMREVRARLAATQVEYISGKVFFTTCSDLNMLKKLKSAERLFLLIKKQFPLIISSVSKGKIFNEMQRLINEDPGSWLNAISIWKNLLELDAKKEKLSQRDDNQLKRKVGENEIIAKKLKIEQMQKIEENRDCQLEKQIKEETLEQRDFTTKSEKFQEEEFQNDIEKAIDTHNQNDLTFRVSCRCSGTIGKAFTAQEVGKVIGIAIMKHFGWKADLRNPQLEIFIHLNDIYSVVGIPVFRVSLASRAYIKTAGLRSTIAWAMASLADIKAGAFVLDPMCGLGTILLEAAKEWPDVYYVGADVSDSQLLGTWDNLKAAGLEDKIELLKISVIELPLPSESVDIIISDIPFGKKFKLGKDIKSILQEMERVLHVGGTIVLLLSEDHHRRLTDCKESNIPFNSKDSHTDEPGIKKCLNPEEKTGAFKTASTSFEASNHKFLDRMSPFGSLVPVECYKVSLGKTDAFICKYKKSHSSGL
Sequence of UniProt P30566 (P30566 whole entry): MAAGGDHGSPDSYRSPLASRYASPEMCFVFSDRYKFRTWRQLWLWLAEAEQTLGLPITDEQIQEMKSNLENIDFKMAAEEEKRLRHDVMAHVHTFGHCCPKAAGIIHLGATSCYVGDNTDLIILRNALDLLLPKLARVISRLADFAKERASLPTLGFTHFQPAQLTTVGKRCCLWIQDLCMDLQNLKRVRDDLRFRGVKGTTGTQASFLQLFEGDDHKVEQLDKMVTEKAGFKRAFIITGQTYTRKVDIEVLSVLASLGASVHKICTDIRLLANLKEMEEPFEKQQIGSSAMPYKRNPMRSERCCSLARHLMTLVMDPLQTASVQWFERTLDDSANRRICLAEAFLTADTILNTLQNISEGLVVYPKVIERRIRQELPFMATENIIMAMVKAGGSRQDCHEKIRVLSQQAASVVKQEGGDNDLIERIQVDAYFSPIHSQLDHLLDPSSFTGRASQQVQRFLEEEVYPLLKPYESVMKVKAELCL
Sequence of UniProt P57060 (P57060 whole entry): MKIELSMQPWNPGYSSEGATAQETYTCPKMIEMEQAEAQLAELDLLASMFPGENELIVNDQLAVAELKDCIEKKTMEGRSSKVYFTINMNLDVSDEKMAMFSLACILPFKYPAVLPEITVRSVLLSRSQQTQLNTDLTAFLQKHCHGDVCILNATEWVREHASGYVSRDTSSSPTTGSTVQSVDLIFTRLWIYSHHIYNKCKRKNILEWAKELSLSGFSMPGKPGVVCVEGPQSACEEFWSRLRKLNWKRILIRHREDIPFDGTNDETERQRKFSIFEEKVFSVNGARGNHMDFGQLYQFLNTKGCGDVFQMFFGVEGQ
Sequence of UniProt Q9NWS8 (Q9NWS8 whole entry): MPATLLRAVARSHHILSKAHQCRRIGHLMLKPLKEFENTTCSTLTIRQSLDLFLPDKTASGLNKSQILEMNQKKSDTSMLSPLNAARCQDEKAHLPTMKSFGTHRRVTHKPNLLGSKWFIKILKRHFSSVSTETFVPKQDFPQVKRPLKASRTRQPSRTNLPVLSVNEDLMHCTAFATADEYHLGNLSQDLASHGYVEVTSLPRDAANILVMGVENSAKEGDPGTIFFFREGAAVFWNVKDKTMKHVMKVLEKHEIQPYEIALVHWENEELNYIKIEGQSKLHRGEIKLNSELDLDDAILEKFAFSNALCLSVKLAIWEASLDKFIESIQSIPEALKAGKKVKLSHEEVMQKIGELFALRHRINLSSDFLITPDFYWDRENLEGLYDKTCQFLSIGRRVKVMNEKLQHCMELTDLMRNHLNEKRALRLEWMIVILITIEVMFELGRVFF
Sequence of UniProt Q9Y5Z0 (Q9Y5Z0 whole entry): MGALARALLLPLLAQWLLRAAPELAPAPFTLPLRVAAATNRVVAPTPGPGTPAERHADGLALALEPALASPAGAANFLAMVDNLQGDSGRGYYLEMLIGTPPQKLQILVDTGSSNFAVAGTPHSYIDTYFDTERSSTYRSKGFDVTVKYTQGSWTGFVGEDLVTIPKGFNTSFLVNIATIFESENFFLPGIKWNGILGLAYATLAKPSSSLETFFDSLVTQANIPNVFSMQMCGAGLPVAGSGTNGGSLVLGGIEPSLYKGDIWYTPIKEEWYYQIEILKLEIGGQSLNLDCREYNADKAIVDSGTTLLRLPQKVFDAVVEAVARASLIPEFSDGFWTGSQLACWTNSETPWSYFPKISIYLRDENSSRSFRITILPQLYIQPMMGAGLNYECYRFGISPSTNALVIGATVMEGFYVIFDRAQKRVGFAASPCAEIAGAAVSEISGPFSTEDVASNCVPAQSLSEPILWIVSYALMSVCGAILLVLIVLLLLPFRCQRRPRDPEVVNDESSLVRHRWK
Sequence of UniProt P57076 (P57076 whole entry): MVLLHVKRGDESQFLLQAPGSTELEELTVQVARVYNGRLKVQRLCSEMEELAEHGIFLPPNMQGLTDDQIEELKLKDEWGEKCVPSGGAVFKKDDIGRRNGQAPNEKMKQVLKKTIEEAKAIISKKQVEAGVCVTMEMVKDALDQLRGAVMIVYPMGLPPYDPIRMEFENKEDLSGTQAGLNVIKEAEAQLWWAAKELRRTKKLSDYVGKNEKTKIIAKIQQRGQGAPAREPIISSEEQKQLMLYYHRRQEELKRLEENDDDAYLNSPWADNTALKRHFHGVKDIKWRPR
Sequence of UniProt Q07075 (Q07075 whole entry): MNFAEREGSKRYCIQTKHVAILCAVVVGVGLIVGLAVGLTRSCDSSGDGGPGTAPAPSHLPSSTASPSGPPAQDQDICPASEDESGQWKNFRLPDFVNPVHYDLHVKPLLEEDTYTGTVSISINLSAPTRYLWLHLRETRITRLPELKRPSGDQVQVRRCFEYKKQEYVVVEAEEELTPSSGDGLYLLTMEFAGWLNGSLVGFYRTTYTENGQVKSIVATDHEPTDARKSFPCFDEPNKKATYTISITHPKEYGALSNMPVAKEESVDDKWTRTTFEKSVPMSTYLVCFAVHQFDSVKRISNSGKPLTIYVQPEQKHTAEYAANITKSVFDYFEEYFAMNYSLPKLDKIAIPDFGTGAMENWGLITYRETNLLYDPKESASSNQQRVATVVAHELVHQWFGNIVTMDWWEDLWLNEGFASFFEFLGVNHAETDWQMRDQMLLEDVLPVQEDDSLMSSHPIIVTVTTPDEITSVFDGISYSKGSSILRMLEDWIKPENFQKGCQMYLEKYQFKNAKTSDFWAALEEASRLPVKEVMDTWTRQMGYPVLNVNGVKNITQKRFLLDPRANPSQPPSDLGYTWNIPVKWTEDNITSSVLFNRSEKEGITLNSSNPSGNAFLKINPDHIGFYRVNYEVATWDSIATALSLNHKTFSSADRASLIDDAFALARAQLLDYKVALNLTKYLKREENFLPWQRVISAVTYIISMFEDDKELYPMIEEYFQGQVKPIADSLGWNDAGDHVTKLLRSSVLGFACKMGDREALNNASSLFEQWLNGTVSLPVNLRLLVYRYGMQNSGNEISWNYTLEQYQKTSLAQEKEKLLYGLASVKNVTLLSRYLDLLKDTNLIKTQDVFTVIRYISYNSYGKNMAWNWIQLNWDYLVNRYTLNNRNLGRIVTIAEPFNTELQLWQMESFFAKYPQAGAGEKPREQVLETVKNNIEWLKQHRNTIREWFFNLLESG
Sequence of UniProt Q9HD34 (Q9HD34 whole entry): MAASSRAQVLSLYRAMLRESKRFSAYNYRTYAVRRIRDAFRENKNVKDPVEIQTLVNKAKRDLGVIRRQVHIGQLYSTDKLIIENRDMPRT
Sequence of UniProt O95168 (O95168 whole entry): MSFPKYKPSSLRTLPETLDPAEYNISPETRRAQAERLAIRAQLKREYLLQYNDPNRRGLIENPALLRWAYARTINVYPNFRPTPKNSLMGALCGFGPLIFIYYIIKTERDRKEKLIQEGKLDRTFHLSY

Target	thermal stability z-score (potassium arsenate)	thermal stability z-score (lipoamide; [1])	thermal stability z-score (lipoamide; arsenate co-treatment: none)
THUMPD2 (UniProt Q9BTF0)	0.0998	-0.2	-0.425
PSMB5 (UniProt P28074)	0.113	0.395	0.222
MAP3K6 (UniProt O95382)	-0.0305	0.0331	-0.0259
MRPL3 (UniProt P09001)	-0.132	-0.851	-0.0275
SETD7 (UniProt Q8WTS6)	-0.402	-0.766	0.0448
CLCN7 (UniProt P51798)	0.0852	-0.792	-0.489
CRLF3 (UniProt Q8IUI8)	0.0579	-0.236	-0.971
CNOT7 (UniProt Q9UIV1)	1.32	-0.248	0.895
ENPEP (UniProt Q07075)	-0.0304	0.281	0.407
FRMD8 (UniProt Q9BZ67)	-0.172	0.263	0.131
P3H1 (UniProt Q32P28)	1.2	-4.35	-3.23
LYRM4 (UniProt Q9HD34)	-0.348	-0.401	0.0692
CHAF1B (UniProt Q13112)	1.29	1.3	1.08
DIS3L2 (UniProt Q8IYB7)	0.155	-0.225	0.566
SOWAHC (UniProt Q53LP3)	0.0878	0.277	0.343
PDE3A (UniProt Q14432)	-0.555	0.363	0.131
FCHSD2 (UniProt O94868)	-0.184	-0.0527	-0.175
ALG10|ALG10B	-0.0103	0.489	-0.122
GTF3C3 (UniProt Q9Y5Q9)	-0.461	-0.0672	0.0153
USO1 (UniProt O60763)	0.146	0.293	0.095
UBR7 (UniProt Q8N806)	0.457	-0.392	-0.575
DFNA5 (UniProt O60443)	0.523	0.218	0.152
PDRG1 (UniProt Q9NUG6)	0.203	0.0914	-0.238
UNC119 (UniProt Q13432)	-0.0734	0.0331	0.106
TMEM165 (UniProt Q9HC07)	0.116	0.669	-0.0469
MLX (UniProt Q9UH92)	0.0805	-0.0303	-0.272
C19ORF52 (UniProt Q9BSF4)	0.873	0.441	0.873
GNAO1 (UniProt P09471)	-0.313	0.151	-0.44

Target	thermal stability z-score (potassium arsenate)	thermal stability z-score (lipoamide; [1])	thermal stability z-score (lipoamide; arsenate co-treatment: none)
ERCC4 (UniProt Q92889)	-0.123	-0.252	0.00197
C21ORF59 (UniProt P57076)	0.112	0.103	0.1
RMND1 (UniProt Q9NWS8)	0.244	0.392	0.519
ARHGAP21 (UniProt Q5T5U3)	-1.3	-0.57	-0.749
NDUFB4 (UniProt O95168)	0.489	0.137	0.173
NOP14 (UniProt P78316)	-0.581	-0.68	-0.438
ALDOC (UniProt P09972)	-0.67	-0.284	-0.526
ENOSF1 (UniProt Q7L5Y1)	-1.01	-0.0529	0.0795
BAG3 (UniProt O95817)	0.236	-0.145	0.303
SFXN1 (UniProt Q9H9B4)	0.0559	0.607	0.214
DENND4C (UniProt Q5VZ89)	0.337	0.201	0.677
SCAF4 (UniProt O95104)	0.0697	0.0769	0.184
DUS1L (UniProt Q6P1R4)	0.0119	0.178	-0.547
GOLM1 (UniProt Q8NBJ4)	-0.568	0.000985	-0.136
RAE1 (UniProt P78406)	0.662	0.676	1.04
FADS3 (UniProt Q9Y5Q0)	-0.618	-0.431	0.482
LIX1L (UniProt Q8IVB5)	-0.301	-0.241	-0.219
SRP72 (UniProt O76094)	0.424	-0.316	-0.00987
NAGPA (UniProt Q9UK23)	-1.05	-0.847	-0.928
LIFR (UniProt P42702)	-0.287	-1.35	-0.675
MCCC2 (UniProt Q9HCC0)	-0.197	0.322	0.156
TMTC3 (UniProt Q6ZXV5)	0.605	-1.23	-0.796
UQCR10 (UniProt Q9UDW1)	0.553	-0.399	0.0606
ADSL (UniProt P30566)	-1.53	-0.0252	-0.429
RWDD2B (UniProt P57060)	-0.0179	0.0612	-0.0257
BACE2 (UniProt Q9Y5Z0)	1.09	-0.766	-0.974
SFXN4 (UniProt Q6P4A7)	0.207	-1.11	-0.872
